Test results as given in US5801150A, “Aminopyri(mi)dine derivatives combined with amino acids, and pharmacological activities thereof” (priority 1993, dated 1998).

What was measured:
[1] = Capture of the hydroxyl radical: Fenton reaction, oxidative degradation of deoxyribose (532 nm); type: biochemical; settings: for k Obtained (speed constant of the reaction with OH°): individual values of 2 or 3 tests; for k Obtained (speed constant of the reaction with OH°) / Mean k (speed constant of the reaction with OH°): pH 7.4, 37° C.; for Mean k (speed constant of the reaction with OH°): mean of 2 or 3 tests; for speed constant with respect to mannitol: ratio to mannitol
Excerpt: The Fenton reaction, the catalytic decomposition of hydrogen peroxide (H2 O2) by the action of Fe^2+, has been used to produce the hydroxyl radical Because of its widespread use, the test of oxidative degradation of deoxyribose has been selected for our study. The hydroxyl radical generated by the Fenton reaction degrades the deoxyribose and produces malonaldehyde which forms a colored complex with thiobarbituric acid. This complex is quantified by colorimetry at a wavelength of 532 nm. This methodology can be represented by the following scheme: [drawing 11] The speed constants have been determined by using the Halliwell method with modifications. The final kinematic equation is the following [formula] A and A0 : absorbances at 532 nm of the complex in the presence and in the absence of the studied derivative. kS and kd : speed constants of the reaction of OH° with the studied derivative and deoxyribose. S and D: concentrations of studied derivative and of deoxyribose. kx : term representing the reactivity of the radical OH° reacting with reagents of the Fenton reaction. In tracing the straight line 1/A as a function of the concentration S, the speed constant kS is determined. […] The reaction is initiated by the addition of the iron EDTA complex (0.13 mM (NH4)2 Fe(SO4)2; 0.143 mM EDTA). After 15 mins. of incubation at 37° C., the reaction is stopped by the addition of 1.5 ml of cold trichloroacetic acid (TCA) (2.8%). 1 ml of this solution is mixed with 1 ml of thiobarbituric acid (TBA) (1% in 0.05M NaOH) and heated for 15 mins. at 100° C. Then, the specimens are cooled and quantified at 532 nm.

[2] = Sensing superoxide anion: auto-oxidation of adrenaline (adrenochrome at 480 nm); type: biochemical; settings: for % of inhibition: pH 10.2; for IC50: superoxide anion, adrenaline auto-oxidation, read-out: concentration at which there is obtained 50% inhibition
Excerpt: The methods used can produce selectively a chosen type of FR (superoxide anion or hydroxyl radical). The detector must be able to detect proportionally all the FR formed.
Step of production and detection of FR: the radicular source supplies the free radical which will react with a detector to form a modified detector. This latter could be quantified directly or after interaction with an analytic reaction complement by spectrophotometric analysis. [drawing 9]
Determination either of the percent of sensing or of the speed constant of the sensor: a sensor enters into competition with the detector to form a modified sensor. There is obtained a reduction of the quantity of the modified detector which gives us, after mathematical analysis, either the speed constant of the reaction of the sensor with the radical, or the percentage of sensing of this radical by the sensor.
The methodology is the auto-oxidation of adrenaline: adrenaline plays the double role of producing superoxide anion and serving as a detector. Adrenaline which is stable at acid pH, oxidizes spontaneously at alkaline pH. This complex reaction gives after several steps, adrenochrome. The superoxide anion participates in it as an oxidizing agent. The formation of adrenochrome is followed at 480 nm. [drawing 10] Capture of the superoxide anion: oxidation of adrenaline
The reaction medium is constituted by 3.1 ml of sodium carbonate (0.05M) at pH 10.2 containing EDTA (0.1 mM). The oxidation reaction is initiated by the addition of 0.2 ml of adrenaline (0.01M, in 0.02N HCl). The formation of adrenochrome is followed for 2 mins. at 480 nm. The compounds to be studied are added with the aide of 0.02 ml of DMSO, before the addition of adrenaline.
The capacity of the substances to sense the superoxide anion is expressed in terms of percentage of inhibition (%I). [formula] A0 and A are respectively the absorbance of the detector modified in the absence and in the presence of the derivative studied.

[3] = literature value; cited from earlier work
[4] = topical application, cited from earlier work
keratinocytes, hair = settings: topical, cited from earlier work
[5] = apart from SOD; cited from earlier work

IC50 [2] [µM] | SMILES | k Obtained (speed constant of the reaction with OH°) [1] | Mean k (speed constant of the reaction with OH°) [1] | % of inhibition ([2]; Conc. 0.1 mM) [%] | % of inhibition ([2]; Conc. 0.2 mM) [%] | % of inhibition ([2]; Conc. 0.3 mM) [%] | % of inhibition ([2]; Conc. 0.5 mM) [%] | % of inhibition ([2]; Conc. 0.6 mM) | Literature k (speed constant of the reaction with OH°) [3] | other results
~670 | CSCCC(NC(C)=O)C(=O)Nc1cc(N2CCCCC2)nc(NC(=O)C(CCSC)NC(C)=O)[n+]1[O-] (racemic) [Disubstituted (N-acetyl-methionine), diamide of 2,4-diamino-6-piperidinopyrimidine-3-oxide and N-acetyl-D,L-methionine] | 19.40-19.50 10^9 M^-1.s^-1 | 19.45 10^9 M^-1.s^-1 | 10.56 | 15.62 | 25.99 | 38.71 | 43.75% | – | speed constant with respect to mannitol [1]: more than eleven times; % of inhibition ([2]; Conc. 0.4 mM): 30.77%; % of inhibition ([2]; Conc. 0.7 mM): 53.22%
– | CSCCC(NC(C)=O)C(=O)Nc1cc(N2CCCCC2)nc(N)[n+]1[O-] (racemic) [Monosubstituted (N-acetyl-methionine), amide of 2,4-diamino-6-piperidinopyrimidine-3-oxide and N-acetyl-D,L-methionine] | 13.10-13.40 10^9 M^-1.s^-1 | 13.25 10^9 M^-1.s^-1 | 7.57 | 14.49 | 19.38 | 27.17 | 32.01% | – | % of inhibition ([2]; Conc. 0.4 mM): 25.71%; % of inhibition ([2]; Conc. 0.6 mM, listed as monosubstituted compound): 32%
– | OC[C@@H](O)[C@@H](O)[C@H](O)[C@H](O)CO [Mannitol] | 1.52-1.84 10^9 M^-1.s^-1 | 1.68 10^9 M^-1.s^-1 | – | – | – | – | – | 1.8 10^9 M^-1.s^-1 | –
– | CSCC[C@H](N)C(=O)O [Methionine] | 5.02-5.36 10^9 M^-1.s^-1 | 5.19 10^9 M^-1.s^-1 | – | – | – | – | – | 6.5 10^9 M^-1.s^-1 | –
~250 | Nc1cc(N2CCCCC2)nc(N)[n+]1[O-] [Minoxidil, 2,4-diamino-6-piperidinopyrimidine-3-oxide] | 10.20-11.40 10^9 M^-1.s^-1 | 10.80 10^9 M^-1.s^-1 | 25.62 | 41.86 | 57.20 | 74.12 | 82.70% | – | average quantity of the applied dose reaching the blood stream ([4]; average): 1.4%; quantity of the applied dose reaching the blood stream, range ([4]; range of values): 0.3 to 4.5%; growth of keratinocytes and of hair (keratinocytes, hair; certain subjects having androgenic alopecy): stimulates the in vitro and in vivo growth of keratinocytes, and the growth of hair; time of use to appearance of the growth phenomenon (keratinocytes, hair; varies as a function of the subjects): about four months (or more); % of inhibition ([2]; Conc. 0.05 mM): 11.71%
– | CSCC[C@H](NC(C)=O)C(=O)O [N-acetyl-methionine] | – | 6.02 10^9 M^-1.s^-1 | – | – | – | – | not observed activity | 6.7 10^9 M^-1.s^-1 | inhibition ([2]; 2 mM): 10%
– | Nc1cc(N2CCCCC2)nc(N)n1 [Reduced minoxidil] | 8.47-9.16 10^9 M^-1.s^-1 | 8.81 10^9 M^-1.s^-1 | – | – | – | – | – | – | speed constant with respect to mannitol [1]: five times
~51 | N[C@@H](CS)C(=O)O [cysteine] | – | – | – | – | – | – | – | – | reactivity with respect to the superoxide anion [5]: most reactive with respect to the superoxide anion; % of inhibition ([2]; cysteine 0.005 mM): 6.52%; % of inhibition ([2]; cysteine 0.008 mM): 8.58%; % of inhibition ([2]; cysteine 0.01 mM): 9.61%; % of inhibition ([2]; cysteine 0.03 mM): 31.72%; % of inhibition ([2]; cysteine 0.04 mM): 34.45%; % of inhibition ([2]; cysteine 0.05 mM): 46.71%; % of inhibition ([2]; cysteine 0.06 mM): 51.93%; % of inhibition ([2]; cysteine 0.07 mM): 57.17%
